Experimental data: patent publication US20210115509A1, “BIOMARKER FOR IDENTIFYING SPECIFIC EXPOSURE TO KETONES AND METHOD OF IDENTIFICATION USING THE SAME” (KOREA INSTITUTE OF SCIENCE AND TECHNOLOGY, priority 2019, published 2021)

Columns and labels:
[1] = tested on: BEAS-2B human bronchial epithelial cell line; assay: MTT assay, cytotoxicity of ketone compounds in BEAS-2B cell line; type: cell-based; settings: human, 48 h
Procedure: BEAS-2B (Korean Cell Line Bank), a human bronchial epithelial cell line, was cultured using RPMI 1640 medium (Gibco, USA) supplemented with 10% FBS until the cells grew to about a confluence of 70 to 80% in a 100 mm dish.
Among ketones belonging to mVOCs (microbial volatile organic compounds) exposed to the environment, acetone, 2-butanone, 2-pentanone, 2-hexanone and 2-heptanone were selected, and the chemicals were dissolved in filtered distilled water (DW). A vehicle concentration was set to 0.1% or less in all experiments.
MTT assay using a BEAS-2B cell line was performed in accordance with the method of Mossman et al. (J. Immunol. Methods, 65, 55-63, 1983).
Specifically, the cells were seeded at a density of 3.5×10^4 cells/well in a 24-well plate and treated with the five ketone compounds dissolved in filtered distilled water, prepared in Example 1-2. After 48 hours, the result was mixed with 5 mg/ml of MTT (3-4,5-dimethylthiazol-2,5-diphenyltetrazolium bromide), added to a tube and incubated at 37° C. for 3 hours. Then, the medium was removed, the formed formazan crystal was dissolved in 500 μl of DMSO, and then 100 μl of the solution was transferred to a 96-well plate to measure an OD (optical density) value at 540 nm.

[2] = tested on: BEAS-2B human bronchial epithelial cell line; assay: Gene expression change by high-throughput RNA sequencing (NextSeq 500) in ketone-exposed BEAS-2B cells; type: cell-based
Procedure: RNA was extracted from cell samples of ketone-exposed and non-ketone-exposed groups using a TRIzol reagent (Life Technologies, USA) in accordance with the manufacturer's directions to isolate total RNA and the total RNA was purified using a RNeasy mini kit (Qiagen, USA). The concentration of each total RNA sample was determined by a ND-2000 spectrophotometer (Thermo Inc., DE, USA) as a spectrophotometer and Agilent 2100 Bioanalyzer (Agilent Technologies, USA).
The establishment of libraries from the total RNA obtained in Example 2-1 in the experimental group and the normal control group exposed to the ketones was carried out using a QuantSeq 3′ mRNA-Seq Library Prep Kit (Lexogen, Inc., Austria) in accordance with the manufacturer's directions. 500 ng of the total RNA was hybridized with an oligo-dT primer including an Illumina-compatible sequence at the 5′ end of RNA, followed by reverse transcription. After degradation of the RNA template, a second strand was synthesized using a random primer including an Illumina-compatible linker sequence at the 5′ end thereof. Double-stranded libraries were purified using magnetic beads to remove all reaction components. The library was amplified in order to add the entire adapter sequence required for cluster production, and the completed cDNA library was purified from the PCR components.
Sequencing was performed by high-throughput sequencing as single-end 75 sequencing using a NextSeq 500 (IIlumina, Inc., USA). Read count (RC) data was processed based on the quantile normalization method using EdgeR in R (R development Core Team, 2016) using Bioconductor (Gentleman et al., 2004). Gene classification was based on searches performed on DAVID (http://david.abcc.ncifcrf.gov/) and the Medline database (http://www.ncbi.nlm.nih.gov/).
The extracted data were analyzed through normalization using Agilent GeneSpring GX 12.6.1 (Agilent technologies, CA, USA) to analyze the expression pattern of each gene.

[3] = IC5 conc.: Acetone 5.38, 2-Butanone 22.27, 2-Pentanone 5.24, 2-Hexanone 14.82, 2-Heptanone 5.05 mM
[4] = IC20 conc.: Acetone 71.90, 2-Butanone 106.21, 2-Pentanone 39.38, 2-Hexanone 52.51, 2-Heptanone 20.22 mM

## CCCC(C)=O [2-Pentanone, 2-pentanone]
[1]
  concentration (105) providing a survival rate (viability) of 95%: 5240 µM
  concentration (1020) providing a survival rate (viability) of 80%: 39330 µM
[2]; [3]
  Fold change ADRA2A (NM_000681): 0.179
  Fold change ATRNL1 (NR_074088): 4.158
  Fold change C12orf79 (NR_046159): 0.213
  Fold change C14orf80 (NR_046159): 0.354
  Fold change CALML3 (NM_001286399): 0.354
  Fold change CCDC184 (NM_001013635): 4.501
  Fold change CD37 (NM_001040031): 2.028
  Fold change CDHR1 (NM_001171971): 0.216
  Fold change CHL1 (NM_001253387): 0.335
  Fold change COL4A3 (NM_000091): 2.229
  Fold change CRLF2 (NM_022148): 0.355
  Fold change CSF3R (NM_172313): 0.354
  Fold change DNMBP-AS1 (NR_024130): 2.406
  Fold change EGR1 (NM_001964): 0.419
  Fold change GNA14 (NM_004297): 8.261
  Fold change LOC728752 (NR_036504): 7.322
  Fold change PAX8 (NM_003466): 2.723
  Fold change PRRT3-AS1 (NR_046734): 2.817
  Fold change RBP3 (NM_002900): 0.354
  Fold change SEPT14 (NM_207366): 0.214
  Fold change SERPINA12 (NM_001304461): 0.354
  Fold change SLC13A4 (NM_012450): 8.995
  Fold change SPOCK2 (NM_001244950): 4.031
  Fold change TSPAN1 (NM_005727): 4.281
  Fold change USP12-AB1 (NR_046647): 7.329
  Fold change VIPR†-AS1 (NR_046654): 0.354
  Fold change XIRP1 (NM_001198621): 0.354
  Fold change ZFP69B (NM_023070): 2.472
  Fold change ZNF432 (NM_014650): 4.086
  Fold change ZNF487 (NR_026693): 0.354
[2]; [4]
  Fold change ADRA2A (NM_000681): 0.184
  Fold change ATRNL1 (NR_074088): 2.665
  Fold change C12orf79 (NR_046159): 0.216
  Fold change C14orf80 (NR_046159): 0.356
  Fold change CALML3 (NM_001286399): 0.356
  Fold change CCDC184 (NM_001013635): 2.387
  Fold change CD37 (NM_001040031): 3.272
  Fold change CDHR1 (NM_001171971): 0.223
  Fold change CHL1 (NM_001253387): 0.273
  Fold change COL4A3 (NM_000091): 5.033
  Fold change CRLF2 (NM_022148): 0.359
  Fold change CSF3R (NM_172313): 0.356
  Fold change DNMBP-AS1 (NR_024130): 8.289
  Fold change EGR1 (NM_001964): 0.332
  Fold change GNA14 (NM_004297): 6.776
  Fold change LOC728752 (NR_036504): 5.683
  Fold change PAX8 (NM_003466): 2.277
  Fold change PRRT3-AS1 (NR_046734): 3.902
  Fold change RBP3 (NM_002900): 0.356
  Fold change SEPT14 (NM_207366): 0.218
  Fold change SERPINA12 (NM_001304461): 0.356
  Fold change SLC13A4 (NM_012450): 2.153
  Fold change SPOCK2 (NM_001244950): 2.181
  Fold change TSPAN1 (NM_005727): 3.938
  Fold change USP12-AB1 (NR_046647): 2.362
  Fold change VIPR†-AS1 (NR_046654): 0.356
  Fold change XIRP1 (NM_001198621): 0.356
  Fold change ZFP69B (NM_023070): 2.299
  Fold change ZNF432 (NM_014650): 5.290
  Fold change ZNF487 (NR_026693): 0.356

## CCCCCC(C)=O [2-Heptanone, 2-heptanone]
[1]
  concentration (105) providing a survival rate (viability) of 95%: 5050 µM
  concentration (1020) providing a survival rate (viability) of 80%: 20220 µM
[2]; [3]
  Fold change ADRA2A (NM_000681): 0.321
  Fold change ATRNL1 (NR_074088): 3.365
  Fold change C12orf79 (NR_046159): 0.213
  Fold change C14orf80 (NR_046159): 0.354
  Fold change CALML3 (NM_001286399): 0.354
  Fold change CCDC184 (NM_001013635): 4.098
  Fold change CD37 (NM_001040031): 5.216
  Fold change CDHR1 (NM_001171971): 0.386
  Fold change CHL1 (NM_001253387): 0.122
  Fold change COL4A3 (NM_000091): 4.774
  Fold change CRLF2 (NM_022148): 0.355
  Fold change CSF3R (NM_172313): 0.354
  Fold change DNMBP-AS1 (NR_024130): 2.035
  Fold change EGR1 (NM_001964): 0.410
  Fold change GNA14 (NM_004297): 4.971
  Fold change LOC728752 (NR_036504): 5.873
  Fold change PAX8 (NM_003466): 4.275
  Fold change PRRT3-AS1 (NR_046734): 2.285
  Fold change RBP3 (NM_002900): 0.354
  Fold change SEPT14 (NM_207366): 0.214
  Fold change SERPINA12 (NM_001304461): 0.354
  Fold change SLC13A4 (NM_012450): 4.638
  Fold change SPOCK2 (NM_001244950): 4.800
  Fold change TSPAN1 (NM_005727): 4.660
  Fold change USP12-AB1 (NR_046647): 11.319
  Fold change VIPR†-AS1 (NR_046654): 0.354
  Fold change XIRP1 (NM_001198621): 0.354
  Fold change ZFP69B (NM_023070): 3.346
  Fold change ZNF432 (NM_014650): 3.207
  Fold change ZNF487 (NR_026693): 0.354
[2]; [4]
  Fold change ADRA2A (NM_000681): 0.179
  Fold change ATRNL1 (NR_074088): 3.204
  Fold change C12orf79 (NR_046159): 0.213
  Fold change C14orf80 (NR_046159): 0.354
  Fold change CALML3 (NM_001286399): 0.354
  Fold change CCDC184 (NM_001013635): 6.381
  Fold change CD37 (NM_001040031): 3.227
  Fold change CDHR1 (NM_001171971): 0.216
  Fold change CHL1 (NM_001253387): 0.335
  Fold change COL4A3 (NM_000091): 8.193
  Fold change CRLF2 (NM_022148): 0.355
  Fold change CSF3R (NM_172313): 0.354
  Fold change DNMBP-AS1 (NR_024130): 11.098
  Fold change EGR1 (NM_001964): 0.381
  Fold change GNA14 (NM_004297): 4.498
  Fold change LOC728752 (NR_036504): 5.440
  Fold change PAX8 (NM_003466): 4.602
  Fold change PRRT3-AS1 (NR_046734): 2.525
  Fold change RBP3 (NM_002900): 0.354
  Fold change SEPT14 (NM_207366): 0.214
  Fold change SERPINA12 (NM_001304461): 0.354
  Fold change SLC13A4 (NM_012450): 11.825
  Fold change SPOCK2 (NM_001244950): 2.838
  Fold change TSPAN1 (NM_005727): 3.058
  Fold change USP12-AB1 (NR_046647): 4.509
  Fold change VIPR†-AS1 (NR_046654): 0.354
  Fold change XIRP1 (NM_001198621): 0.354
  Fold change ZFP69B (NM_023070): 2.674
  Fold change ZNF432 (NM_014650): 4.845
  Fold change ZNF487 (NR_026693): 0.354
